Source: PubChem BioAssay (NCI)
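In this assay, cells in 96-well plates receive the compound at five concentrations for 48 hours. Endpoints are linearly interpolated between the surrounding concentrations. GI50 is the concentration that inhibits growth by half. TGI: total growth inhibition.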

Experiments:
Assay in all cases: NCI tumour cell line growth inhibition, 48 h
SK-OV-3 ovarian = tested on: SK-OV-3 ovarian
NCI-H23 lung = tested on: NCI-H23 lung
SF-295 CNS = tested on: SF-295 CNS
NCI-H522 lung = tested on: NCI-H522 lung
CCRF-CEM leukemia = tested on: CCRF-CEM leukemia
PC-3 prostate = tested on: PC-3 prostate
RPMI-8226 leukemia = tested on: RPMI-8226 leukemia
UACC-62 melanoma = tested on: UACC-62 melanoma
T-47D breast = tested on: T-47D breast
HT29 colon = tested on: HT29 colon
COLO 205 colon = tested on: COLO 205 colon
UO-31 renal = tested on: UO-31 renal
HCT-116 colon = tested on: HCT-116 colon
MOLT-4 leukemia = tested on: MOLT-4 leukemia
SN12C renal = tested on: SN12C renal
IGROV1 ovarian = tested on: IGROV1 ovarian
MDA-MB-435 = tested on: MDA-MB-435
TK-10 renal = tested on: TK-10 renal
HCT-15 colon = tested on: HCT-15 colon
NCI-H460 lung = tested on: NCI-H460 lung
OVCAR-4 ovarian = tested on: OVCAR-4 ovarian
SK-MEL-5 melanoma = tested on: SK-MEL-5 melanoma
LOX IMVI melanoma = tested on: LOX IMVI melanoma
M14 melanoma = tested on: M14 melanoma
NCI-H226 lung = tested on: NCI-H226 lung
SF-539 CNS = tested on: SF-539 CNS
K-562 leukemia = tested on: K-562 leukemia
NCI/ADR-RES ovarian = tested on: NCI/ADR-RES ovarian
OVCAR-5 ovarian = tested on: OVCAR-5 ovarian
DU-145 prostate = tested on: DU-145 prostate

SMILES: COc1cc(-c2nc3ccc(C)cc3[nH]2)ccc1OCc1nnc(-c2ccc(Br)cc2)o1
- TGI (SK-OV-3 ovarian): > 100 µM
- GI50 (NCI-H23 lung): 32 µM
- TGI (NCI-H23 lung): > 100 µM
- GI50 (SF-295 CNS): 14.9 µM
- TGI (SF-295 CNS): 34.8 µM
- GI50 (NCI-H522 lung): 17.1 µM
- TGI (NCI-H522 lung): 45 µM
- GI50 (CCRF-CEM leukemia): 28.3 µM
- TGI (CCRF-CEM leukemia): > 100 µM
- GI50 (PC-3 prostate): 40.3 µM
- TGI (PC-3 prostate): > 100 µM
- GI50 (RPMI-8226 leukemia): 8.54 µM
- TGI (RPMI-8226 leukemia): > 100 µM
- GI50 (UACC-62 melanoma): 20.1 µM
- TGI (UACC-62 melanoma): > 100 µM
- GI50 (T-47D breast): 7.33 µM
- TGI (T-47D breast): 34.4 µM
- GI50 (HT29 colon): 10.8 µM
- TGI (HT29 colon): 53.6 µM
- GI50 (COLO 205 colon): 27.1 µM
- TGI (COLO 205 colon): > 100 µM
- GI50 (UO-31 renal): 11.1 µM
- TGI (UO-31 renal): > 100 µM
- GI50 (HCT-116 colon): 25.4 µM
- TGI (HCT-116 colon): > 100 µM
- GI50 (MOLT-4 leukemia): 6.86 µM
- TGI (MOLT-4 leukemia): > 100 µM
- GI50 (SN12C renal): 29.9 µM
- TGI (SN12C renal): > 100 µM
- GI50 (IGROV1 ovarian): 16.3 µM
- TGI (IGROV1 ovarian): > 100 µM
- GI50 (MDA-MB-435): 18.7 µM
- TGI (MDA-MB-435): 53.3 µM
- GI50 (TK-10 renal): 27.6 µM
- TGI (TK-10 renal): 94.7 µM
- GI50 (HCT-15 colon): 12.2 µM
- TGI (HCT-15 colon): 85.7 µM
- GI50 (NCI-H460 lung): 27.8 µM
- TGI (NCI-H460 lung): > 100 µM
- GI50 (OVCAR-4 ovarian): 14.3 µM
- TGI (OVCAR-4 ovarian): 38.4 µM
- GI50 (SK-MEL-5 melanoma): 11.8 µM
- TGI (SK-MEL-5 melanoma): 34.1 µM
- GI50 (LOX IMVI melanoma): 12.1 µM
- TGI (LOX IMVI melanoma): 27.5 µM
- GI50 (M14 melanoma): 40.2 µM
- TGI (M14 melanoma): > 100 µM
- GI50 (NCI-H226 lung): 15.3 µM
- TGI (NCI-H226 lung): > 100 µM
- GI50 (SF-539 CNS): 12.6 µM
- TGI (SF-539 CNS): 26.7 µM
- GI50 (K-562 leukemia): 15.4 µM
- TGI (K-562 leukemia): > 100 µM
- GI50 (NCI/ADR-RES ovarian): 19.3 µM
- TGI (NCI/ADR-RES ovarian): > 100 µM
- GI50 (OVCAR-5 ovarian): 57.2 µM
- TGI (OVCAR-5 ovarian): > 100 µM
- GI50 (DU-145 prostate): 51.7 µM
- TGI (DU-145 prostate): > 100 µM
